# What was measured:
# Format in all cases: cell-based, human
# [1] = test system: ADAD spheroids; assay: Aβ deposition by whole mount immunostaining (6E10) in ADAD spheroids; details: ADAD spheroids treated from PID16 to 28; 5 μM β-secretase inhibitor IV or 40 μM DAPT; immunostained at PID28
# Description: (§1) β-secretase inhibitor IV (cat #565788), DAPT (cat #D5942), and lamivudine (3TC) (cat #PHR1365) were purchased from Millipore Sigma. To make the stock solution, 5 mM β-secretase inhibitor IV and 40 mM DAPT were dissolved in DMSO and 100 mM 3TC was dissolved in sterile water. For thin gel culture, 2.5 μM β-secretase inhibitor IV, 20 μM DAPT, or 100 μM 3TC was added to the fresh media and used for half media changes starting at PID16 or PID22. For spheroids culture, 5 μM β-secretase inhibitor IV, 40 μM DAPT, or 100 μM 3TC was added to the fresh media and used for half media changes starting at PID16 or PID22.
# (§2) Whole mount immunofluorescence staining of spheroid: For whole-mount immunostaining of neuronal spheroid, 3D cell culture clearing kit (abcam: ab243299) was used with modifications. Briefly, fixed spheroids on transwell inserts were permeabilized by sequential dehydration and rehydration using different concentrations of ethanol. […]
# (§3) For quantification of the total volume of Aβ deposits, volume and area of the spheroid, co-localization analysis in tau related pathologies, and number of TUNEL positive cells or total cells, the “surface” module in Imaris was used for 3D reconstruction and quantification. […]
# [2] = test system: ADAD 3D-CNs; assay: p-tau (AT8) and K63-ubiquitin/p-tau (PHF1) immunostaining in ADAD 3D-CNs; details: ADAD 3D-CNs treated with β-secretase inhibitor IV or DAPT
# Description: as §1
# Immunofluorescence staining of thin gel: The fixed thin gel cultures were permeabilized in PBST (0.2% (vol/vol) TritonX-100 in PBS) at room temperature for 1h and blocked with blocking buffer (5% (wt/vol) BSA, 2% (wt/vol) normal goat serum, and 0.2% (vol/vol) TritonX-100) overnight at 4° C. The blocking buffer was removed from thin gel culture plates and primary antibodies diluted in blocking buffer were added to the plate followed by incubation overnight at 4° C. with gentle rocking. After washing 5 times with PBST, the cells were then incubated with secondary antibodies diluted in blocking buffer at room temperature for 3-5 hours or 4° C. overnight. Cells were washed 5 times with PBST, incubated with DAPI (Sigma) for 20 min at room temperature if needed and sealed with a drop of anti-fade prolong gold reagent (Life technology). Plates were sealed with parafilm and stored at 4° C. before imaging. The immunofluorescence images were taken by Leica SP5X white light laser confocal system.
# (§4) For quantification of the total volume of Aβ deposits, volume and area of the spheroid, co-localization analysis in tau related pathologies, and number of TUNEL positive cells or total cells, the “surface” module in Imaris was used for 3D reconstruction and quantification. For measuring the intensity of neurite outgrowth in spheroid, Image J was used by measuring the mean intensity at each region (distal, middle, and proximal).
# [3] = test system: ADAD spheroids; assay: Cell death (TUNEL staining) in ADAD spheroids; details: ADAD spheroids at PID28, treatment starting at PID16
# Description: as §1, §4
# TUNEL assay: DeadEND Fluorometric TUNEL system kit was purchased from Promega (G3250) and TUNEL assay was performed according to the manufacturer's description. Briefly, the cryosections of neuronal spheroids were permeabilized by 0.2% TritonX-100 in PBS for 5 mins followed by two 5 mins washes in PBS. […]
# [4] = test system: LOAD spheroids; assay: Aβ deposition by whole mount immunostaining (6E10) in LOAD spheroids; details: treatment started at PID22 (after onset of Aβ deposition), examined at PID28
# Description: as §1, §2, §3
Compound,Aβ deposition [1],K63-ubiquitin+p-tau (PHF1) level [2],p-tau (AT8) level [2],cell death / neuronal death [3],reduction of Aβ deposition [4] [%],effect on Aβ deposition [4]
C[C@H](NC(=O)Cc1cc(F)cc(F)c1)C(=O)N[C@H](C(=O)OC(C)(C)C)c1ccccc1 [DAPT],reduction,significant reduction,significant reduction,reduced,~30,
β-secretase inhibitor IV,reduction,significant reduction,significant reduction,reduced,,non-significant effect

# From patent publication US20240352414A1, “THREE-DIMENSIONAL DIRECT NEURONAL REPROGRAMMING TO MODEL ALZHEIMER'S DISEASE IN HUMAN NEURONS” (Washington University, priority 2023, published 2024)
